Measurements published in patent US12036190B2, “Methods and compositions for the treatment of cytoplasmic glycogen storage disorders” (Duke University, priority 2015, dated 2024).

Experiments:
[1] = test system: G6pc siRNA knockdown AML-12 cells; conditions: Oil Red O, duplicate
Excerpt: In brief, a wide array of drugs was selected, including those that modulate autophagy via the […] pathway, those that do so through AMPK modulation to act through mTORC1, and those using yet-undetermined pathways. Analysis of additional literature led to the selection of three concentrations of each compound to be tested in cell culture using the G6pc siRNA knockdown AML-12 mouse hepatocyte cell line model of GSD Ia as an initial screen for the drugs.
Drug concentrations were chosen based on similarity to published concentrations in either cell culture models resulting in target effects or autophagy, or in vivo extracellular fluid concentrations following animal treatments. The latter case is noted with the fluid type. Concentrations used in our in vitro AML-12 cell culture treatments are listed as the low, medium, and high concentrations that were screened.
The first test using AML-12 cells was the Oil Red 0 stain to examine the presence of lipid vacuoles in cells given the treatments.
G6pc siRNA knockdown AML-12 cells were given three different doses of each drug treatment. After 72 hours of growth, the media was changed to ketogenic media and appropriate quantities of each drug were added. This was performed in duplicate. Oil Red 0 staining was then performed and bright field images acquired at 10× magnification.
Drug treatments at three doses each were performed on G6pc siRNA knockdown AML-12 cells. Following oil red 0 staining the whole plates were evaluated visually for reductions in lipid accumulation. Treatments were performed in duplicate. —/0/+/++/+++ indicates the degree of improvement, or lipid reduction, caused by the treatment, with + indicating positive benefits.

[2] = test system: G6pc knockdown AML-12 cells; assay: LC3 Western blot of drug-treated G6pc knockdown AML-12 cells; assay type: cell-based, mouse; conditions: 24 hours; conditions with optimal effects in the Oil Red O screen
Method: FIG. 27 illustrates LC3 Western blot of drug-treated G6pc knockdown AML-12 cells. Western blotting was performed on AML-12 cells incubated for 24 hours with the described drug conditions. LC3 was quantified and normalized against each condition's β-actin protein quantification.
In addition to Oil Red O staining, cells were analyzed via Western blots for restored LC3 expression for each drug, under the conditions that had optimal effects in the Oil Red O screen (FIG. 27). Since the Western antibody previously used successfully for rapamycin treatment LC3 blots had been discontinued by the manufacturer, we tested two alternative antibodies and chose the one from Cell Signaling Technologies because it gave the strongest signal-to-noise ratio under our experimental conditions.
Western blotting was performed on AML-12 cells incubated for 24 hours with the described drug conditions. LC3 was quantified and normalized against each condition's β-actin protein quantification.

[3] = test system: autophagy; conditions: Table 4; drugs known to enhance autophagy; cited from earlier work
[4] = in vivo extracellular fluid concentration; cited from earlier work

With NC(=O)N1c2ccccc2C=Cc2ccccc21 [Carbamazepine] the “Lipid Reduction Scoring, High dose” value ([1]; high concentration of Table 6) was 0, the “Lipid Reduction Scoring, Low dose” value ([1]; low concentration of Table 6) was “+++” and the “Lipid Reduction Scoring, Medium dose” value ([1]; medium concentration of Table 6) was “+”. The “LC3 normalized against β-actin (Western blot)” value [2] was “increase in LC3 autophagic marker”, the Effect [3] was “Activated autophagy, reduced hepatosteatosis” and the “Published Concentration, cerebrospinal fluid” value [4] was 0.7 to 1.5 µg/mL.
